Values joined by “and” are separate entries in the source; they are usually repeats but may differ in a detail not shown here. Equal values may be shown once. Numbers after ± are expanded uncertainties.
Legend:
[1] = Liquid; for viscosity / speed of sound: 101 kPa; for viscosity: Capillary tube (Ostwald / Ubbelohde) method; for mass density: 101.33 kPa, Vibrating tube method; for speed of sound: Frequency=2 MHz, Pulse-echo method
[2] = xn = mol fraction of the nth substance listed; details: Liquid; for viscosity / speed of sound: 101 kPa; for viscosity: Capillary tube (Ostwald / Ubbelohde) method; for speed of sound: Frequency=2 MHz, Pulse-echo method; for mass density: 101.33 kPa, Vibrating tube method

Row | SMILES | viscosity ([1]; 298.15 K) | mass density ([1]; 298.15 K) | viscosity ([1]; 303.15 K) | speed of sound ([1]; 303.15 K) | mass density ([1]; 303.15 K) | viscosity ([1]; 308.15 K) | speed of sound ([1]; 308.15 K) | mass density ([1]; 308.15 K) | viscosity ([1]; 313.15 K) | speed of sound ([1]; 313.15 K) | mass density ([1]; 313.15 K) | viscosity ([2]; 303.15 K, x2 = 0) | speed of sound ([2]; 303.15 K, x2 = 0) | mass density ([2]; 303.15 K, x2 = 0) | viscosity ([2]; 308.15 K, x2 = 0) | speed of sound ([2]; 308.15 K, x2 = 0) | mass density ([2]; 308.15 K, x2 = 0) | viscosity ([2]; 313.15 K, x2 = 0) | speed of sound ([2]; 313.15 K, x2 = 0) | mass density ([2]; 313.15 K, x2 = 0) | other results
1 | ClCCCl [1,2-dichloroethane] | 0.776 ± 0.012 mPa·s | 1246.7 ± 0.4 kg/m3 | 0.7237 ± 0.012 mPa·s | 1174 ± 7.2 m/s | 1238.7 ± 0.4 kg/m3 | 0.6737 ± 0.011 mPa·s | 1164.8 ± 7.1 m/s | 1230.5 ± 0.4 kg/m3 | 0.6419 ± 0.011 mPa·s | 1153.5 ± 7 m/s | 1223.7 ± 0.4 kg/m3 |  |  |  |  |  |  |  |  |  | 
2 | ClC=C(Cl)Cl [trichloroethene] + N#CCc1ccccc1 |  |  |  |  |  |  |  |  |  |  |  | 0.5172 ± 0.011 mPa·s | 1014.7 ± 6.2 m/s | 1447.5 ± 0.6 kg/m3 | 0.4992 ± 0.011 mPa·s | 993.7 ± 6.1 m/s | 1437.8 ± 0.6 kg/m3 | 0.4833 ± 0.011 mPa·s | 982 ± 6 m/s | 1430.4 ± 0.6 kg/m3 | 
3 | ClC=C(Cl)Cl [trichloroethene] | 0.527 ± 0.011 mPa·s | 1455.9 ± 0.6 kg/m3 | 0.5172 ± 0.011 mPa·s | 1014.7 ± 6.2 m/s | 1447.5 ± 0.6 kg/m3 | 0.4992 ± 0.011 mPa·s | 993.7 ± 6.1 m/s | 1437.8 ± 0.6 kg/m3 | 0.4833 ± 0.011 mPa·s | 982 ± 6 m/s | 1430.4 ± 0.6 kg/m3 |  |  |  |  |  |  |  |  |  | 
4 | ClC(Cl)C(Cl)Cl [1,1,2,2-tetrachloroethane] + N#CCc1ccccc1 |  |  |  |  |  |  |  |  |  |  |  | 1.456 ± 0.017 mPa·s | 1134.7 ± 7 m/s | 1579.6 ± 1.4 kg/m3 | 1.354 ± 0.017 mPa·s | 1115.5 ± 6.9 m/s | 1570.6 ± 1.4 kg/m3 | 1.261 ± 0.016 mPa·s | 1095.5 ± 6.8 m/s | 1563.7 ± 1.4 kg/m3 | 
5 | ClC(Cl)=C(Cl)Cl [tetrachloroethene] + N#CCc1ccccc1 |  |  |  |  |  |  |  |  |  |  |  | 0.7971 ± 0.012 mPa·s | 1028 ± 6.3 m/s | 1607.2 ± 0.8 kg/m3 | 0.7657 ± 0.012 mPa·s | 1014 ± 6.2 m/s | 1597.9 ± 0.8 kg/m3 | 0.7395 ± 0.012 mPa·s | 996.6 ± 6.1 m/s | 1590.6 ± 0.8 kg/m3 | 
6 | ClC(Cl)C(Cl)Cl [1,1,2,2-tetrachloroethane] |  | 1586.8 ± 1.4 kg/m3 | 1.456 ± 0.017 mPa·s | 1134.7 ± 7 m/s | 1579.6 ± 1.4 kg/m3 | 1.354 ± 0.017 mPa·s | 1115.5 ± 6.9 m/s | 1570.6 ± 1.4 kg/m3 | 1.261 ± 0.016 mPa·s | 1095.5 ± 6.8 m/s | 1563.7 ± 1.4 kg/m3 |  |  |  |  |  |  |  |  |  | 
7 | ClCCCl [1,2-dichloroethane] + N#CCc1ccccc1 |  |  |  |  |  |  |  |  |  |  |  | 0.7237 ± 0.012 mPa·s | 1174 ± 7.1 m/s | 1238.7 ± 0.4 kg/m3 | 0.6737 ± 0.011 mPa·s | 1164.8 ± 7.1 m/s | 1230.5 ± 0.4 kg/m3 | 0.6419 ± 0.011 mPa·s | 1153.5 ± 7 m/s | 1223.7 ± 0.4 kg/m3 | 
8 | N#CCc1ccccc1 [benzeneacetonitrile] |  |  | 1.761 ± 0.023 mPa·s | 1519.2 ± 9.4 m/s | 1008.83 ± 0.86 kg/m3 and 1008.8 ± 0.9 kg/m3 | 1.602 ± 0.021 mPa·s | 1512.9 ± 9.3 m/s | 1004.1 ± 0.8 kg/m3 | 1.489 ± 0.02 mPa·s | 1503.4 ± 9.3 m/s | 999.5 ± 0.8 kg/m3 |  |  |  |  |  |  |  |  |  | 
9 | ClCC(Cl)Cl [1,1,2-trichloroethane] | 1.105 ± 0.016 mPa·s |  | 1.019 ± 0.016 mPa·s | 1129.2 ± 7.1 m/s | 1425 ± 1.8 kg/m3 | 0.9483 ± 0.015 mPa·s | 1115.9 ± 7 m/s | 1416.1 ± 1.8 kg/m3 | 0.8888 ± 0.015 mPa·s | 1096.1 ± 6.9 m/s | 1409.6 ± 1.8 kg/m3 |  |  |  |  |  |  |  |  |  | 
10 | N#CCc1ccccc1 [benzeneacetonitrile] + ClCC(Cl)Cl |  |  |  |  |  |  |  |  |  |  |  |  |  |  |  |  |  |  |  |  | viscosity ([2]; 303.15 K, x1 = 1): 1.761 ± 0.023 mPa·s; speed of sound ([2]; 303.15 K, x1 = 1): 1519.2 ± 9.4 m/s; mass density ([2]; 303.15 K, x1 = 1): 1008.8 ± 0.9 kg/m3; viscosity ([2]; 308.15 K, x1 = 1): 1.602 ± 0.021 mPa·s; speed of sound ([2]; 308.15 K, x1 = 1): 1512.9 ± 9.3 m/s; mass density ([2]; 308.15 K, x1 = 1): 1004.1 ± 0.8 kg/m3; viscosity ([2]; 313.15 K, x1 = 1): 1.489 ± 0.02 mPa·s; speed of sound ([2]; 313.15 K, x1 = 1): 1503.4 ± 9.3 m/s; mass density ([2]; 313.15 K, x1 = 1): 999.5 ± 0.8 kg/m3
11 | ClC(Cl)=C(Cl)Cl [tetrachloroethene] | 0.847 ± 0.012 mPa·s | 1614.8 ± 0.8 kg/m3 | 0.7971 ± 0.012 mPa·s | 1028 ± 6.3 m/s | 1607.2 ± 0.8 kg/m3 | 0.7657 ± 0.012 mPa·s | 1014 ± 6.2 m/s | 1597.9 ± 0.8 kg/m3 | 0.7395 ± 0.012 mPa·s | 996.6 ± 6.1 m/s | 1590.6 ± 0.8 kg/m3 |  |  |  |  |  |  |  |  |  | 
